{
  "source": "ChEMBL document CHEMBL1149607",
  "about": "“Synthesis, characterization and antimicrobial activity of new aliphatic sulfonamide” (2007)",
  "type_in_all_cases": "functional",
  "key": {"Staphylococcus aureus [1]": {"tested_on": "Staphylococcus aureus", "test": "Antibacterial activity against Staphylococcus aureus ATCC 25923 after 24 hrs by disc diffusion method"}, "Listeria monocytogenes [2]": {"tested_on": "Listeria monocytogenes", "test": "Antibacterial activity against Listeria monocytogenes Li6 isolate after 24 hrs by disc diffusion method"}, "Staphylococcus aureus [3]": {"tested_on": "Staphylococcus aureus", "test": "Antibacterial activity against Staphylococcus aureus ATCC 25923 by microdilution broth method"}, "Bacillus cereus [4]": {"tested_on": "Bacillus cereus", "test": "Antibacterial activity against Bacillus cereus ATCC […] by microdilution broth method"}, "Listeria monocytogenes [5]": {"tested_on": "Listeria monocytogenes", "test": "Antibacterial activity against Listeria monocytogenes Li6 isolate by microdilution broth method"}, "Escherichia coli [6]": {"tested_on": "Escherichia coli", "test": "Antibacterial activity against Escherichia coli ATCC 11230 by microdilution broth method"}, "Candida albicans [7]": {"tested_on": "Candida albicans", "test": "Antifungal activity against Candida albicans by microdilution broth method"}, "Escherichia coli [8]": {"tested_on": "Escherichia coli", "test": "Antibacterial activity against Escherichia coli ATCC 11230 after 24 hrs by disc diffusion method"}, "Candida albicans [9]": {"tested_on": "Candida albicans", "test": "Antifungal activity against Candida albicans after 48 hrs by disc diffusion method"}, "Bacillus cereus [10]": {"tested_on": "Bacillus cereus", "test": "Antibacterial activity against Bacillus cereus ATCC […] after 24 hrs by disc diffusion method"}, "Escherichia coli [11]": {"tested_on": "Escherichia coli", "test": "Antibacterial activity against Escherichia coli ATCC 11230 at 10 ug after 24 hrs by disc diffusion method", "conditions": "ATCC 11230, 24 h, read-out: IZ"}, "Candida albicans [12]": {"tested_on": "Candida albicans", "test": "Antifungal activity against Candida albicans at 50 ug after 48 hrs by disc diffusion method", "conditions": "read-out: IZ"}, "Bacillus cereus [13]": {"tested_on": "Bacillus cereus", "test": "Antibacterial activity against Bacillus cereus ATCC […] at 1 ug after 24 hrs by disc diffusion method", "conditions": "read-out: IZ"}, "Staphylococcus aureus [14]": {"tested_on": "Staphylococcus aureus", "test": "Antibacterial activity against Staphylococcus aureus ATCC 25923 at 10U by disc diffusion method"}},
  "data": [
    {"smiles": "CCCS(=O)(=O)NCCCNS(=O)(=O)CCC", "values": [
      {"measurement": "inhibition zone (IZ)", "setting": "Staphylococcus aureus [1]", "result": 11, "unit": "mm"},
      {"measurement": "inhibition zone (IZ)", "setting": "Listeria monocytogenes [2]", "result": 11, "unit": "mm"},
      {"measurement": "MIC", "setting": "Staphylococcus aureus [3]", "result": 456, "unit": "µg/mL"},
      {"measurement": "MIC", "setting": "Bacillus cereus [4]", "result": 380, "unit": "µg/mL"},
      {"measurement": "MIC", "setting": "Listeria monocytogenes [5]", "result": 532, "unit": "µg/mL"},
      {"measurement": "MIC", "setting": "Escherichia coli [6]", "result": 228, "unit": "µg/mL"},
      {"measurement": "MIC", "setting": "Candida albicans [7]", "result": 532, "unit": "µg/mL"},
      {"measurement": "inhibition zone (IZ)", "setting": "Escherichia coli [8]", "result": 12, "unit": "mm"},
      {"measurement": "inhibition zone (IZ)", "setting": "Candida albicans [9]", "result": 12, "unit": "mm"}
    ]},
    {"smiles": "CCCS(=O)(=O)NCCCCNS(=O)(=O)CCC", "values": [
      {"measurement": "MIC", "setting": "Staphylococcus aureus [3]", "result": 336, "unit": "µg/mL"},
      {"measurement": "MIC", "setting": "Bacillus cereus [4]", "result": 336, "unit": "µg/mL"},
      {"measurement": "MIC", "setting": "Listeria monocytogenes [5]", "result": 228, "unit": "µg/mL"},
      {"measurement": "MIC", "setting": "Escherichia coli [6]", "result": 240, "unit": "µg/mL"},
      {"measurement": "MIC", "setting": "Candida albicans [7]", "result": 336, "unit": "µg/mL"},
      {"measurement": "inhibition zone (IZ)", "setting": "Escherichia coli [8]", "result": 12, "unit": "mm"}
    ]},
    {"smiles": "CCCCS(=O)(=O)NCCNS(=O)(=O)CCCC", "values": [
      {"measurement": "MIC", "setting": "Staphylococcus aureus [3]", "result": 216, "unit": "µg/mL"},
      {"measurement": "MIC", "setting": "Bacillus cereus [4]", "result": 243, "unit": "µg/mL"},
      {"measurement": "MIC", "setting": "Listeria monocytogenes [5]", "result": 216, "unit": "µg/mL"},
      {"measurement": "MIC", "setting": "Escherichia coli [6]", "result": 243, "unit": "µg/mL"},
      {"measurement": "MIC", "setting": "Candida albicans [7]", "result": 324, "unit": "µg/mL"},
      {"measurement": "inhibition zone (IZ)", "setting": "Escherichia coli [8]", "result": 10, "unit": "mm"}
    ]},
    {"smiles": "CCCCS(=O)(=O)NCCCNS(=O)(=O)CCCC", "values": [
      {"measurement": "inhibition zone (IZ)", "setting": "Bacillus cereus [10]", "result": 10, "unit": "mm"},
      {"measurement": "inhibition zone (IZ)", "setting": "Listeria monocytogenes [2]", "result": 11, "unit": "mm"},
      {"measurement": "MIC", "setting": "Staphylococcus aureus [3]", "result": 270, "unit": "µg/mL"},
      {"measurement": "MIC", "setting": "Bacillus cereus [4]", "result": 180, "unit": "µg/mL"},
      {"measurement": "MIC", "setting": "Listeria monocytogenes [5]", "result": 225, "unit": "µg/mL"},
      {"measurement": "MIC", "setting": "Escherichia coli [6]", "result": 225, "unit": "µg/mL"},
      {"measurement": "MIC", "setting": "Candida albicans [7]", "result": 315, "unit": "µg/mL"},
      {"measurement": "inhibition zone (IZ)", "setting": "Escherichia coli [8]", "result": 10, "unit": "mm"},
      {"measurement": "inhibition zone (IZ)", "setting": "Candida albicans [9]", "result": 10, "unit": "mm"}
    ]},
    {"smiles": "CCCCS(=O)(=O)NCCCCCNS(=O)(=O)CCCC", "values": [
      {"measurement": "MIC", "setting": "Staphylococcus aureus [3]", "result": 432, "unit": "µg/mL"},
      {"measurement": "MIC", "setting": "Bacillus cereus [4]", "result": 540, "unit": "µg/mL"},
      {"measurement": "MIC", "setting": "Listeria monocytogenes [5]", "result": 432, "unit": "µg/mL"},
      {"measurement": "MIC", "setting": "Escherichia coli [6]", "result": 486, "unit": "µg/mL"},
      {"measurement": "MIC", "setting": "Candida albicans [7]", "result": 540, "unit": "µg/mL"},
      {"measurement": "inhibition zone (IZ)", "setting": "Escherichia coli [8]", "result": 12, "unit": "mm"},
      {"measurement": "inhibition zone (IZ)", "setting": "Candida albicans [9]", "result": 13, "unit": "mm"}
    ]},
    {"smiles": "CCCCS(=O)(=O)NCCCCNS(=O)(=O)CCCC", "values": [
      {"measurement": "inhibition zone (IZ)", "setting": "Staphylococcus aureus [1]", "result": 10, "unit": "mm"},
      {"measurement": "MIC", "setting": "Staphylococcus aureus [3]", "result": 648, "unit": "µg/mL"},
      {"measurement": "MIC", "setting": "Bacillus cereus [4]", "result": 463, "unit": "µg/mL"},
      {"measurement": "MIC", "setting": "Listeria monocytogenes [5]", "result": 648, "unit": "µg/mL"},
      {"measurement": "MIC", "setting": "Escherichia coli [6]", "result": 555, "unit": "µg/mL"},
      {"measurement": "MIC", "setting": "Candida albicans [7]", "result": 555, "unit": "µg/mL"},
      {"measurement": "inhibition zone (IZ)", "setting": "Escherichia coli [8]", "result": 11, "unit": "mm"},
      {"measurement": "inhibition zone (IZ)", "setting": "Candida albicans [9]", "result": 12, "unit": "mm"}
    ]},
    {"smiles": "CCCS(=O)(=O)NCCNS(=O)(=O)CCC", "values": [
      {"measurement": "inhibition zone (IZ)", "setting": "Staphylococcus aureus [1]", "result": 12, "unit": "mm"},
      {"measurement": "inhibition zone (IZ)", "setting": "Listeria monocytogenes [2]", "result": 16, "unit": "mm"},
      {"measurement": "MIC", "setting": "Staphylococcus aureus [3]", "result": 300, "unit": "µg/mL"},
      {"measurement": "MIC", "setting": "Bacillus cereus [4]", "result": 250, "unit": "µg/mL"},
      {"measurement": "MIC", "setting": "Listeria monocytogenes [5]", "result": 300, "unit": "µg/mL"},
      {"measurement": "MIC", "setting": "Escherichia coli [6]", "result": 150, "unit": "µg/mL"},
      {"measurement": "MIC", "setting": "Candida albicans [7]", "result": 300, "unit": "µg/mL"},
      {"measurement": "inhibition zone (IZ)", "setting": "Escherichia coli [8]", "result": 11, "unit": "mm"}
    ]},
    {"smiles": "CC1(C)S[C@@H]2[C@H](NC(=O)[C@H](N)c3ccccc3)C(=O)N2[C@H]1C(=O)O", "note": "[AMPICILLIN]", "values": [
      {"measurement": "zone of inhibition at 10 µg/disc", "setting": "Escherichia coli [11]", "result": 9, "unit": "mm"}
    ]},
    {"smiles": "CC(=O)N1CCN(c2ccc(OC[C@H]3CO[C@](Cn4ccnc4)(c4ccc(Cl)cc4Cl)O3)cc2)CC1", "note": "[KETOCONAZOLE]", "values": [
      {"measurement": "zone of inhibition at 50 µg/disc", "setting": "Candida albicans [12]", "result": 16, "unit": "mm"}
    ]},
    {"smiles": "Cc1onc(-c2ccccc2)c1C(=O)N[C@@H]1C(=O)N2[C@@H]1SC(C)(C)[C@@H]2C(=O)O", "note": "[OXACILLIN]", "values": [
      {"measurement": "zone of inhibition at 1 µg/disc", "setting": "Bacillus cereus [13]", "result": 9, "unit": "mm"}
    ]},
    {"smiles": "CC1(C)S[C@@H]2[C@H](NC(=O)Cc3ccccc3)C(=O)N2[C@H]1C(=O)O", "note": "[PENICILLIN G]", "values": [
      {"measurement": "inhibition zone (IZ)", "setting": "Staphylococcus aureus [14]", "result": 19, "unit": "mm"}
    ]}
  ]
}
